Assay [1] addresses human TYK2 (JH2domain-pseudokinase) (Homo sapiens (Human), UniProt P29597). The assay is described as follows: TYK2 JH2 Domain Binding Assay (KINOMEscan). The conditions noted are these: 11-point 3-fold dilution, top concentration 30,000 nM, duplicate; read-out: hTYK2_JH2_Binding (Kd; nM). In outline:
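KINOMEscan competition binding: HEK293-expressed NFkB-fused TYK2 JH2 (G556–D888), DNA-tagged, against immobilized ligand beads, 1 h shaking at room temperature, 0.9% DMSO. Bound kinase quantified by qPCR.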

Assay [2] has as its system IL-12 induced STAT4 phosphorlyation mediated by TYK2/JAK2. The assay is described as follows: IL-12 Induced pSTAT4 in Human PBMC. The assay is classed as cell-based. The note with it: 1.7 ng/mL IL-12 for 30 minutes. In short, it runs like this: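 Thawed human PBMC pre-incubated with compound 1 hr at 37° C (0.1% DMSO final), then stimulated 30 minutes with IL-12 at 1.7 ng/mL final. pSTAT4 and total STAT4 measured in cell lysates with MSD reagents.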

Chain of human TYK2 (JH2domain-pseudokinase) (P29597 556-888): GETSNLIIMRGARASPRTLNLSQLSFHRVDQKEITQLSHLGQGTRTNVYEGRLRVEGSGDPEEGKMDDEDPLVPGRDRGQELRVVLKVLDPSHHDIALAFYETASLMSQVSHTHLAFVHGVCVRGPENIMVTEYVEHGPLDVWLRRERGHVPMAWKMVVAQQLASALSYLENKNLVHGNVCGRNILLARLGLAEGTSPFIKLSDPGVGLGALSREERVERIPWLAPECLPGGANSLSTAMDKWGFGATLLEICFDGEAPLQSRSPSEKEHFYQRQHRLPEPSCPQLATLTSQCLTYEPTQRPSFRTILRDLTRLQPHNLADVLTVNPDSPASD

A word on the Kd: it is the constant that tells how readily two partners part at equilibrium. By IC50 is commonly meant the point on the concentration scale where inhibition reaches its midpoint. Low readings indicate greater potency in that assay, high ones weaker potency in that assay. As for `O=C(NC1CCC1(F)F)c1cnn2c3c(c(-c4cn(C5COC5)c5ncccc45)nc12)OCCN3` (stereo not shown) [Compound I-771, N-(2,2-Difluorocyclobutyl)-5-(1-(oxetan-3-yl)-1H-pyrrolo[2,3-b]pyridin-3-yl)-2,3-dihydro-1H-pyrazolo[5′,1′:2,3]pyrimido[5,4-b][1,4]oxazine-7-carboxamide], the Kd in assay [1] was < 0.2 nM. Also, in assay [2] (0.5 h), the IC50 is < 0.1 µM.
Regarding `CNc1cc(-c2cnc3n([C@H]4CCOC[C@@H]4O)cccc2-3)nc2c(C(=O)N[C@@H]3C[C@@H]3F)cnn12` [Compound I-825], the Kd in assay [1] is < 0.2 nM. Besides, the IC50 in assay [2] is < 0.1 µM.
Take `CNc1cc(-c2cn(C3CN(C)C3)c3ncccc23)nc2c(C(=O)NC3CC[C@@H]3OC)cnn12` (stereo partly shown) [Compound I-608]: the Kd in assay [1] was < 0.2 nM. Moreover, in assay [2], the IC50 is < 0.1 µM.
With `CNc1cc(Nc2cccn(-c3ocnc3C)c2=O)nc2c(C(=O)NC3CC[C@@H]3F)cnn12` (stereo partly shown) [Compound I-185], the Kd in assay [1] was < 0.2 nM. For the same molecule, the half-maximal inhibitory concentration (IC50) in assay [2] is < 0.1 µM.
In the same order, the values of `CNc1cc(-c2cn([C@H]3C[C@@H](COC)C3)c3ncccc23)nc2c(C(=O)N[C@H]3CC[C@@H]3OC)cnn12` [Compound I-933] are < 0.2 nM and < 0.1 µM.
On to `CNc1cc(-c2cnc3n(C4CCN(CCOC)CC4)cccc2-3)nc2c(C(=O)N[C@H]3CC[C@@H]3OC)cnn12` [Compound I-1020, N-((1S,2S)-2-methoxycyclobutyl)-5-(7-(1-(2-methoxyethyl)piperidin-4-yl)-7H-pyrrolo[2,3-b]pyridin-3-yl)-7-(methylamino)pyrazolo[1,5-a]pyrimidine-3-carboxamide], for which, in assay [1], the equilibrium dissociation constant (Kd) is < 0.2 nM. Moreover, the IC50 in assay [2] (0.5 h) is < 0.1 µM.
On to `CNc1cc(Nc2cccn(C3COC3)c2=O)nc2c(C(=O)N[C@@H]3CC[C@@H]3F)cnn12` [Compound I-162], for which, in assay [1], the Kd is < 0.2 nM. Further, the IC50 in assay [2] was < 0.1 µM.
Take `O=C(NC1CCC1(F)F)c1cnn2c3c(c(Nc4cccn([C@H]5[C@@H]6COC[C@@H]65)c4=O)nc12)OCCN3` (stereo partly shown) [Compound I-768]: the Kd in assay [1] is < 0.2 nM. Moreover, the 50% inhibitory concentration (IC50) in assay [2] is < 0.1 µM.
In the same order, the values of `CC(C)n1cccc(Nc2nc3c(C(=O)N[C@H]4CCC4(F)F)cnn3c3c2OCCN3)c1=O` [Compound I-766] are < 0.2 nM and < 0.1 µM.
For `CO[C@H]1CC[C@@H]1NC(=O)c1cnn2c(N)cc(Nc3cccn(-c4ccccn4)c3=O)nc12` [Compound I-246], in that order: < 0.2 nM and 0.1 to 0.5 µM.
For the molecule `O=C(NC1CC[C@@H]1F)c1cnn2c3c(c(-c4cn([C@H]5C[C@H](O)C5)c5ncccc45)nc12)OCCN3` (stereo partly shown) [Compound I-756], the dissociation constant (Kd) in assay [1] is < 0.2 nM. Besides, the IC50 in assay [2] was < 0.1 µM.
In the same order, the values of `CC(C)n1cc(-c2nc3c(C(=O)NC4CC[C@H]4O)cnn3c3c2OCCN3)c2cccnc21` (stereo partly shown) [Compound I-753] are < 0.2 nM and < 0.1 µM.
Consider `CNc1cc(-c2cn([C@H]3[C@@H]4COC[C@@H]43)c3ncccc23)nc2c(C(=O)N[C@@H]3CC[C@H]3O)cnn12` [Compound I-960], for which the Kd in assay [1] is < 0.2 nM. For the same molecule, in assay [2], the IC50 lay within 0.1 to 0.5 µM.
`CNc1cc(-c2cnc3n([C@@H]4COC[C@H]4O)cccc2-3)nc2c(C(=O)NC3CC3)cnn12` [Compound I-817]: in assay [1], the Kd was < 0.2 nM. The IC50 in assay [2] was < 0.1 µM.
On to `CNc1cc(-c2cnc3n(CC(=O)N4CCOCC4)cccc2-3)nc2c(C(=O)NC3CC[C@@H]3OC)cnn12` (stereo partly shown) [Compound I-962], for which the Kd in assay [1] is < 0.2 nM. The molecule also gave an IC50 in assay [2] of 0.5 to 1 µM.
Turning to “N-((cis-1,2)-2-Hydroxycyclobutyl)-5-(1-((1s,3R)-3-hydroxycyclobutyl)-1H-pyrrolo[2,3-b]pyridin-3-yl)-7-(methylamino)pyrazolo[1,5-a]pyrimidine-3-carboxamide [Compound I-111]”, in assay [1], the Kd was < 0.2 nM. In addition, in assay [2], the IC50 fell in the range of 0.1 to 0.5 µM.
Consider `CNc1cc(Nc2cccn(C3COC3)c2=O)nc2c(C(=O)NC3CC[C@H]3F)cnn12` (stereo partly shown) [Compound I-160], for which the Kd in assay [1] is < 0.2 nM. Besides, the IC50 in assay [2] is < 0.1 µM.
Regarding `CNc1cc(Nc2cccn([C@H]3C[C@H](OC)C3)c2=O)nc2c(C(=O)NC3CCC3)cnn12` [Compound I-141], in assay [1], the Kd is < 0.2 nM. In assay [2], the IC50 was < 0.1 µM.
For `CNc1cc(-c2cn([C@H]3C[C@@H](O)C3)c3ncccc23)nc2c(C(=O)N[C@@H]3C[C@@H]3F)cnn12` [Compound I-500], the Kd in assay [1] is < 0.2 nM. Also, in assay [2], the IC50 was in the range of 0.1 to 0.5 µM.
For the molecule `CNc1cc(-c2cnc3n(C4CCOCC4)cccc2-3)nc2c(C(=O)N[C@@H]3CC[C@H]3OC)cnn12` [Compound I-1015], in assay [1], the Kd is < 0.2 nM. In assay [2], the IC50 lay in the range of 0.5 to 1 µM.
`CNc1cc(Nc2cccn([C@@H]3CCC[C@](C)(O)C3)c2=O)nc2c(C(=O)NC3CC3)cnn12` [Compound I-3, N-cyclopropyl-5-((1-((1R,3S)-3-hydroxy-3-methylcyclohexyl)-2-oxo-1,2-dihydropyridin-3-yl)amino)-7-(methylamino)pyrazolo[1,5-a]pyrimidine-3-carboxamide]: the Kd in assay [1] was < 0.2 nM. Further, the IC50 in assay [2] (0.5 h) was < 0.1 µM.
In the case of `CNc1ccc(-c2cc(NC)n3ncc(C(=O)N[C@@H]4C[C@@H]4F)c3n2)n2ccnc12` [Compound I-479], the Kd in assay [1] is < 0.2 nM. In addition, the IC50 in assay [2] is < 0.1 µM.
As to `CNc1cc(-c2cn([C@H]3CCCOC3)c3ncccc23)nc2c(C(=O)N[C@@H]3CC[C@@H]3O)cnn12` [Compound I-14, N-((1R,2S)-2-Hydroxycyclobutyl)-7-(methylamino)-5-(1-((S)-tetrahydro-2H-pyran-3-yl)-1H-pyrrolo[2,3-b]pyridin-3-yl)pyrazolo[1,5-a]pyrimidine-3-carboxamide], the Kd in assay [1] is < 0.2 nM. Besides, in assay [2] (0.5 h), the IC50 was < 0.1 µM.
With `CNc1cc(Nc2cccn(C(C)C)c2=O)nc2c(C(=O)N[C@@H]3CC[C@@]3(C)O)cnn12` [Compound I-341], in assay [1], the Kd is < 0.2 nM. Besides, the IC50 in assay [2] was < 0.1 µM.
Take `CC(C)n1cccc(Nc2nc3c(C(=O)NC4CCC4(F)F)cnn3c3c2OCCN3)c1=O` (stereo not shown) [Compound I-765]: the Kd in assay [1] is < 0.2 nM. The half-maximal inhibitory concentration (IC50) in assay [2] is < 0.1 µM.
Turning to `CNc1cc(-c2cnc3n([C@H]4COC[C@@H]4O)cccc2-3)nc2c(C(=O)N[C@@H]3C[C@@H]3F)cnn12` [Compound I-820], the Kd in assay [1] is < 0.2 nM. The concentration for half-maximal inhibition (IC50) in assay [2] is < 0.1 µM.
On to `CNc1cc(Nc2cccn(C3CC(F)(F)C3)c2=O)nc2c(C(=O)N[C@H]3CC[C@H](O)C3)cnn12` [Compound I-41, 5-((1-(3,3-Difluorocyclobutyl)-2-oxo-1,2-dihydropyridin-3-yl)amino)-N-((1S,3S)-3-hydroxycyclopentyl)-7-(methylamino)pyrazolo[1,5-a]pyrimidine-3-carboxamide], for which the Kd in assay [1] is 0.2 to 1 nM. Besides, the IC50 in assay [2] (0.5 h) was < 0.1 µM.
Consider `CNc1cc(Nc2cccn(-c3ocnc3C)c2=O)nc2c(C(=O)NC3CCC3)cnn12` [Compound I-144], for which the Kd in assay [1] was < 0.2 nM. In assay [2], the IC50 is < 0.1 µM.
With `CNc1cc(-c2cnc3n([C@@H]4COC[C@H]4O)cccc2-3)nc2c(C(=O)N[C@@H]3C[C@@H]3F)cnn12` [Compound I-821], the equilibrium dissociation constant (Kd) in assay [1] is < 0.2 nM. Moreover, the IC50 in assay [2] fell in the range of 0.1 to 0.5 µM.
Consider `CNc1cc(-c2cnc3n([C@H]4COC[C@@H]4O)cccc2-3)nc2c(C(=O)NC3CC3)cnn12` [Compound I-816], for which the dissociation constant Kd in assay [1] was < 0.2 nM. For the same molecule, in assay [2], the half-inhibitory concentration (IC50) is < 0.1 µM.
In the case of `CO[C@@H]1CC[C@H]1NC(=O)c1cnn2c(N)cc(Nc3cccn(-c4ccccn4)c3=O)nc12` [Compound I-247], the Kd in assay [1] was > 10 nM. Moreover, the IC50 in assay [2] was 0.1 to 0.5 µM.
In the case of `CNc1cc(Nc2cccn([C@H]3C[C@H](F)C3)c2=O)nc2c(C(=O)N[C@H]3C[C@@H]3OC)cnn12` [Compound I-138], the Kd in assay [1] was < 0.2 nM. The IC50 in assay [2] was < 0.1 µM.
As to `CNc1cc(Nc2cccn([C@H]3C[C@H](OC)C3)c2=O)nc2c(C(=O)N[C@@H]3C[C@@H]3F)cnn12` [Compound I-8, N-((1R,2S)-2-Fluorocyclopropyl)-5-((1-((1r,3R)-3-methoxycyclobutyl)-2-oxo-1,2-dihydropyridin-3-yl)amino)-7-(methylamino)pyrazolo[5-a]pyrimidine-3-carboxamide], the Kd in assay [1] was < 0.2 nM. Moreover, the IC50 in assay [2] (0.5 h) was < 0.1 µM.
`CNc1cc(-c2cnc3n(C4CCOCC4)cccc2-3)nc2c(C(=O)N[C@H]3CC[C@@H]3OC)cnn12` [Compound I-1014]: the dissociation constant (Kd) in assay [1] is < 0.2 nM. Moreover, in assay [2], the IC50 is < 0.1 µM.
In the same order, the values of `O=C(N[C@@H]1C[C@@H]1F)c1cnn2c3c(c(Nc4cccc5ocnc45)nc12)OCCN3` [Compound I-752] are < 0.2 nM and < 0.1 µM.
`CNc1cc(-c2cn(C3COC3)c3ncccc23)nc2c(C(=O)NC3CC[C@@H]3F)cnn12` (stereo partly shown) [Compound I-507]: the Kd in assay [1] was < 0.2 nM. For the same molecule, in assay [2], the IC50 was < 0.1 µM.
On to `CNc1cc(Nc2cccn([C@H]3C[C@@H]3F)c2=O)nc2c(C(=O)N[C@H]3CC[C@@H]3OC)cnn12` [Compound I-49, 5-((1-((1S,2S)-2-Fluorocyclopropyl)-2-oxo-1,2-dihydropyridin-3-yl)amino)-N-((1S,2S)-2-methoxycyclobutyl)-7-(methylamino)pyrazolo[1,5-a]pyrimidine-3-carboxamide], for which the Kd in assay [1] was < 0.2 nM. Moreover, the IC50 in assay [2] (0.5 h) is < 0.1 µM.
Regarding `CNc1cc(Nc2cccn([C@H]3C[C@H](OC)C3)c2=O)nc2c(C(=O)NC3CC3)cnn12` [Compound I-4, N-Cyclopropyl-5-((1-((1r,3r)-3-methoxycyclobutyl)-2-oxo-1,2-dihydropyridin-3-yl)amino)-7-(methylamino)pyrazolo[1,5-a]pyrimidine-3-carboxamide], the Kd in assay [1] is < 0.2 nM. In assay [2] (0.5 h), the IC50 was < 0.1 µM.

For the origin of these results see patent US11414431B2, “Substituted pyrazolo[1,5-a]pyrimidines as TYK2 inhibitors” (Nimbus Lakshmi, Inc., priority 2018, dated 2022).
